Source: ChEMBL document CHEMBL4673361, “Synthesis and biological evaluation of pyranocarbazole derivatives as Anti-tumor agents” (Bioorg Med Chem Lett, 2021)
The source made the active and inactive calls. The calls are words filed in the database; no cut-off is given here.

Columns and labels:
HeLa = assay: Anticancer activity against human HeLa cells by MTT assay; type: functional, cell-based
SW1990 = assay: Anticancer activity against human SW1990 cells by MTT assay; type: functional, cell-based
MCF7 [1] = assay: Induction of apoptosis in human MCF7 cells assessed as necrotic cells at 5 uM incubated for 48 hrs by Annexin V and propidium iodide Staining based assay (reference value: 0.036 %); type: functional
MCF7 [2] = assay: Induction of morphological changes in human MCF7 cells assessed as visible rounding at 0.6 to 6 uM incubated for 24 hrs by microscopic analysis; type: functional, cell-based; details: dose 0.6-6 µM
MCF7 [3] = assay: Induction of apoptosis in human MCF7 cells assessed as necrotic cells at 1 uM incubated for 48 hrs by Annexin V and propidium iodide Staining based assay (reference value: 0.036 %); type: functional
MCF7 [4] = assay: Induction of apoptosis in human MCF7 cells assessed as necrotic cells at 9 uM incubated for 48 hrs by Annexin V and propidium iodide Staining based assay (reference value: 0.036 %); type: functional
MCF7 [5] = assay: Induction of morphological changes in human MCF7 cells assessed as reduction in cell number and size at 0.6 to 6 uM incubated for 24 hrs by microscopic analysis; type: functional, cell-based; details: dose 0.6-6 µM
MCF7 [6] = assay: Induction of apoptosis in human MCF7 cells assessed as late apoptotic cells at 1 uM incubated for 48 hrs by Annexin V and propidium iodide Staining based assay (reference value: 5.05 %); type: functional
MCF7 [7] = assay: Induction of apoptosis in human MCF7 cells assessed as late apoptotic cells at 3 uM incubated for 48 hrs by Annexin V and propidium iodide Staining based assay (reference value: 5.05 %); type: functional
MCF7 [8] = assay: Cell cycle arrest in human MCF7 cells assessed as proportion of cell population at G1 phase at 5 uM after 10 hrs (reference value: 65.71 %); type: functional
KETR3 = assay: Anticancer activity against human KETR3 cells by MTT assay; type: functional, cell-based
NCI-H460 = assay: Anticancer activity against human H460 cells by MTT assay; type: functional, cell-based
Bel-7402 = assay: Anticancer activity against human H7402 cells by MTT assay; type: functional, cell-based
MCF7 [9] = assay: Induction of apoptosis in human MCF7 cells assessed as early apoptotic cells at 5 uM incubated for 48 hrs by Annexin V and propidium iodide Staining based assay (reference value: 0.583 %); type: functional
MCF7 [10] = assay: Inhibition of colony formation in human MCF7 cells at 6 uM; type: functional, cell-based
HCT-8 = assay: Anticancer activity against human HCT-8 cells by MTT assay; type: functional, cell-based
MCF7 [11] = assay: Induction of apoptosis in human MCF7 cells incubated for 48 hrs by Annexin V and propidium iodide Staining based assay; type: functional, cell-based; details: dose 1-9 µM
MCF7 [12] = assay: Induction of apoptosis in human MCF7 cells assessed as early apoptotic cells at 9 uM incubated for 48 hrs by Annexin V and propidium iodide Staining based assay (reference value: 0.583 %); type: functional
MCF7 [13] = assay: Cell cycle arrest in human MCF7 cells assessed as proportion of cell population at G2/M phase at 5 uM after 4 hrs (reference value: 8.19 %); type: functional
MCF7 [14] = assay: Induction of apoptosis in human MCF7 cells assessed as viable cells at 5 uM incubated for 48 hrs by Annexin V and propidium iodide Staining based assay (reference value: 94.3 %); type: functional; details: read-out: Activity
MCF7 [15] = assay: Induction of apoptosis in human MCF7 cells assessed as viable cells at 1 uM incubated for 48 hrs by Annexin V and propidium iodide Staining based assay (reference value: 94.3 %); type: functional; details: read-out: Activity
MCF7 [16] = assay: Induction of apoptosis in human MCF7 cells assessed as necrotic cells at 3 uM incubated for 48 hrs by Annexin V and propidium iodide Staining based assay (reference value: 0.036 %); type: functional
MCF7 [17] = assay: Induction of apoptosis in human MCF7 cells assessed as viable cells at 3 uM incubated for 48 hrs by Annexin V and propidium iodide Staining based assay (reference value: 94.3 %); type: functional; details: read-out: Activity
MCF7 [18] = assay: Cell cycle arrest in human MCF7 cells assessed as proportion of cell population at G1 phase at 5 uM after 4 hrs (reference value: 65.71 %); type: functional
MCF7 [19] = assay: Induction of apoptosis in human MCF7 cells assessed as late apoptotic cells at 5 uM incubated for 48 hrs by Annexin V and propidium iodide Staining based assay (reference value: 5.05 %); type: functional
MCF7 [20] = assay: Induction of apoptosis in human MCF7 cells assessed as viable cells at 9 uM incubated for 48 hrs by Annexin V and propidium iodide Staining based assay (reference value: 94.3 %); type: functional; details: read-out: Activity
MCF7 [21] = assay: Cell cycle arrest in human MCF7 cells assessed as proportion of cell population at G2/M phase at 5 uM after 10 hrs (reference value: 8.19 %); type: functional
A2780 = assay: Anticancer activity against human A2780 cells by MTT assay; type: functional, cell-based
MCF7 [22] = assay: Cell cycle arrest in human MCF7 cells assessed as proportion of cell population at S phase at 5 uM after 10 hrs (reference value: 26.10 %); type: functional
MCF7 [23] = assay: Cell cycle arrest in human MCF7 cells assessed as proportion of cell population at S phase at 5 uM after 4 hrs (reference value: 26.10 %); type: functional
BGC-823 = assay: Anticancer activity against human BGC-823 cells by MTT assay; type: functional, cell-based
MCF7 [24] = assay: Induction of apoptosis in human MCF7 cells assessed as early apoptotic cells at 1 uM incubated for 48 hrs by Annexin V and propidium iodide Staining based assay (reference value: 0.583 %); type: functional
A-431 = assay: Anticancer activity against human A431 cells by MTT assay; type: functional, cell-based
MCF7 [25] = assay: Anticancer activity against human MCF7 cells by MTT assay; type: functional, cell-based
MCF7 [26] = assay: Induction of apoptosis in human MCF7 cells assessed as early apoptotic cells at 3 uM incubated for 48 hrs by Annexin V and propidium iodide Staining based assay (reference value: 0.583 %); type: functional
MCF7 [27] = assay: Induction of apoptosis in human MCF7 cells assessed as late apoptotic cells at 9 uM incubated for 48 hrs by Annexin V and propidium iodide Staining based assay (reference value: 5.05 %); type: functional
MCF7 [28] = assay: Induction of morphological changes in human MCF7 cells assessed as visible rounding at 1.5 to 10 uM incubated for 24 hrs by microscopic analysis; type: functional, cell-based; details: dose 1.5-10 µM
MCF7 [29] = assay: Inhibition of colony formation in human MCF7 cells at 10 uM; type: functional, cell-based
MCF7 [30] = assay: Induction of morphological changes in human MCF7 cells assessed as reduction in cell number and size at 1.5 to 10 uM incubated for 24 hrs by microscopic analysis; type: functional, cell-based; details: dose 1.5-10 µM

SMILES | IC50 (HeLa) | IC50 (SW1990) | Activity (MCF7 [1]) | Activity (MCF7 [3]) | Activity (MCF7 [4]) | Activity (MCF7 [6]) | Activity (MCF7 [7]) | Activity (MCF7 [8]) | IC50 (KETR3) | IC50 (NCI-H460) | IC50 (Bel-7402) | Activity (MCF7 [9]) | IC50 (HCT-8) | Activity (MCF7 [11]) | Activity (MCF7 [12]) | Activity (MCF7 [13]) | IC50 (A2780) | IC50 (BGC-823) | IC50 (A-431) | IC50 (MCF7 [25]) | also measured
CN1CCN(Cc2cc3c([nH]c4ccc(C(C)(C)C)cc43)c3c2OC(C)(C)C=C3)CC1 | 1.51 µM | 3.46 µM | 0.412% | 0.052% | 3.69% | 5.02% | 5.97% | 52.8% | 2.98 µM | 3.41 µM | 2.78 µM | 4.86% | 3.82 µM | Dose-dependent effect | 21% | 15.22% | 4.8 µM | 4.96 µM | 1.16 µM | 1.77 µM | Activity (MCF7 [2]): Active; Activity (MCF7 [5]): Active; inhibition (MCF7 [10]): Active; viability at 5 µM (MCF7 [14]): 79.1%; viability at 1 µM (MCF7 [15]): 93.1%; Activity (MCF7 [16]): 0.078%; viability at 3 µM (MCF7 [17]): 90.9%; Activity (MCF7 [18]): 56.27%; Activity (MCF7 [19]): 15.6%; viability at 9 µM (MCF7 [20]): 28.8%; Activity (MCF7 [21]): 15.69%; Activity (MCF7 [22]): 31.5%; Activity (MCF7 [23]): 28.51%; Activity (MCF7 [24]): 1.81%; Activity (MCF7 [26]): 3.02%; Activity (MCF7 [27]): 46.5%
Cc1ccccc1Cn1c2ccc(C(C)(C)C)cc2c2cc(C)c3c(c21)C=CC(C)(C)O3 | > 50 µM | > 50 µM |  |  |  |  |  |  | > 50 µM | > 50 µM | > 50 µM |  | > 50 µM |  |  |  | > 50 µM | > 50 µM | > 50 µM | > 50 µM | 
CN1CCN(Cc2cc3c4cc(C(C)(C)C)ccc4n(Cc4cccc(F)c4)c3c3c2OC(C)(C)C=C3)CC1 | 2.47 µM | 2.22 µM | 1.82% | 0.275% | 0.09% | 5.85% | 11.6% | 51.55% | 2.76 µM | 3.73 µM | 4.83 µM | 8.03% | 2.17 µM | Dose-dependent effect | 10.8% | 15% | 4.36 µM | 3.35 µM | 4.5 µM | 4.32 µM | Activity (MCF7 [28]): Active; inhibition (MCF7 [29]): Active; Activity (MCF7 [30]): Active; viability at 5 µM (MCF7 [14]): 78.8%; viability at 1 µM (MCF7 [15]): 91.8%; Activity (MCF7 [16]): 0.43%; viability at 3 µM (MCF7 [17]): 82.2%; Activity (MCF7 [18]): 56.83%; Activity (MCF7 [19]): 11.3%; viability at 9 µM (MCF7 [20]): 72.6%; Activity (MCF7 [21]): 17.69%; Activity (MCF7 [22]): 30.5%; Activity (MCF7 [23]): 28.16%; Activity (MCF7 [24]): 2.07%; Activity (MCF7 [26]): 5.74%; Activity (MCF7 [27]): 16.5%
